Test results reported in patent US20040138199A1, “Benzoxazines and derivatives thereof as therapeutic agents” (priority 2002, published 2004).
pIC50: −log10 of the molar value.

molecular target: T1, p101/p110γ protein (PI3Kγ) (Homo sapiens, UniProt P48736); assay: PI3Kγ In Vitro Kinase Assay; format: biochemical; conditions: purified recombinant p101/p110γ with G protein β1/γ2 subunits; 20 μM ATP, 25 μM PIP2; 20 minutes at room temperature; radioactive PIP3 readout
T1 construct: HA; made in house; host or cells: Spodoptera frugiperda (Sf9) cells, baculovirus coinfection
Protocol: Spodtera frugiperda cells, grown in ESF921 media, were coinfected with baculovirus expressing a glu-tagged […] and baculovirus expressing an HA-tagged p110γ, at a 3:1 ratio of p110 baculovirus to p110γ baculovirus. Sf9 cells were grown to 1×10^7 total cells/mL in 10L bioreactors and harvested 48-72 hours post infection. Samples of infected cells were then tested for expression of p101/p110γ PI3 kinase by immunoprecipitation and Western Blot analysis methods (see below).
To purify PI3Kγ, 4 volumes of room temperature hypotonic lysis buffer (1 mM MgCl2, 1 mM DTT, 5 mM EGTA, 1 mM Pefabloc, 0.5 μM aprotinin, […], 2 μM pepstatin, 5 μM E64, pH 8) per gram of cell paste, was poured onto frozen cell pellets with stirring, then lysed in a nitrogen “bomb” at 400 psi (599HC T316, Parr Instrument Co, Moline, Ill.). NaCl was added to 150 mM, and sodium cholate was added to 1% and mixed for another 45 minutes. The lysates were clarified by centrifugation for 25 minutes at 14,000 rpm. The lysates were then loaded over anti-glu-linked Protein-G Sepaharose beads (Covance Research Products, Richmond, Calif.) using 20 mL resin/50 g cell paste. The column was washed with 15 volumes of wash buffer (1 mM DTT, 0.2 mM EGTA, 1 mM Pefabloc, 0.5 μM aprotinin, 5 μM leupeptin, 2 μM pepstatin, 5 μM E64, 150 mM NaCl, 1% sodium cholate, pH 8). PI3Kγ was eluted with 6 column volumes of wash buffer that contain 100 μg/mL of a peptide that competes for binding of the glu tag. The column fractions with the eluted protein (determined by taking OD280 readings) were collected and dialyzed in 0.2 mM EGTA, 1 mM DTT, 1 mM Pefabloc, 5 μM leupeptin, 0.5% sodium cholate, 150 mM NaCl, and 50% glycerol, pH 8. The fractions were stored at −80° C. until further use.
Spodtera frugiperda cells were coinfected with baculovirus expressing a glu-tagged G protein β1 and baculovirus expressing a […] at a 1:1 ratio of glu-tagged G protein β1 baculovirus to G protein β2 baculovirus. Sf9 cells are grown in 10 L bioreactors and harvested 48-72 hours post infection. Samples of infected cells were tested for G protein β1/β2 expression by Western Blot analysis, as described below. Cell lysates were homogenized and loaded onto a column of glu-tagged beads as in Biological Example 1 and competed off the column with a glu peptide as described in Biological Example 1.
The inhibitory properties of the compounds in Table 1 were assayed in an in vitro PI3K assay. In a 96-well polypropylene plate, each well was spotted with 2 μL of 50 times the desired final concentration of compound in DMSO. Purified recombinant p101/p110γ protein (0.03 μg; ˜2.7 nM) and G protein β1/γ2 subunits (0.09 μg; −57.7 nM) for each reaction was combined in the assay buffer (30 mM HEPES, 100 mM NaCl, 1 mM EGTA, and 1 mM DTT). ATP and [γ-^32P-ATP] (0.09 μCi) were added to this mixture so that the final ATP concentration in the reaction was 20 μM. Lipid micelles were formed by sonicating phosphatidylinositol-4,5-diphosphate (PIP2), phosphatidylethanolamine (PE), and Na-cholate in the assay buffer for 10 minutes, adding MgCL2 and incubating on ice for 20 minutes, for final concentrations of 25 μM PIP2, 300 μM PE, 0.02% Na-cholate, and 10 mM MgCl2 in the reaction. The reactions were started by adding equal volumes lipid and enzyme mixture in a total volume of 50 μL, allowed to run for 20 minutes at room temperature, and stopped with 100 μL 75 mM H3PO4. The lipid product was transferred to a glass fiber filter plate and washed with 75 mM H3PO4 several times. The presence of radioactive lipid product (PIP3) was measured by adding Wallac Optiphase mix to each well and counting in a Wallac 1450 Trilux plate reader (PerkinElmer Life Sciences Inc., Boston, Mass. 02118). The IC50 for each compound tested is reported in μM in Table 1: […]

T1 sequence (P48736 whole entry, species assumed): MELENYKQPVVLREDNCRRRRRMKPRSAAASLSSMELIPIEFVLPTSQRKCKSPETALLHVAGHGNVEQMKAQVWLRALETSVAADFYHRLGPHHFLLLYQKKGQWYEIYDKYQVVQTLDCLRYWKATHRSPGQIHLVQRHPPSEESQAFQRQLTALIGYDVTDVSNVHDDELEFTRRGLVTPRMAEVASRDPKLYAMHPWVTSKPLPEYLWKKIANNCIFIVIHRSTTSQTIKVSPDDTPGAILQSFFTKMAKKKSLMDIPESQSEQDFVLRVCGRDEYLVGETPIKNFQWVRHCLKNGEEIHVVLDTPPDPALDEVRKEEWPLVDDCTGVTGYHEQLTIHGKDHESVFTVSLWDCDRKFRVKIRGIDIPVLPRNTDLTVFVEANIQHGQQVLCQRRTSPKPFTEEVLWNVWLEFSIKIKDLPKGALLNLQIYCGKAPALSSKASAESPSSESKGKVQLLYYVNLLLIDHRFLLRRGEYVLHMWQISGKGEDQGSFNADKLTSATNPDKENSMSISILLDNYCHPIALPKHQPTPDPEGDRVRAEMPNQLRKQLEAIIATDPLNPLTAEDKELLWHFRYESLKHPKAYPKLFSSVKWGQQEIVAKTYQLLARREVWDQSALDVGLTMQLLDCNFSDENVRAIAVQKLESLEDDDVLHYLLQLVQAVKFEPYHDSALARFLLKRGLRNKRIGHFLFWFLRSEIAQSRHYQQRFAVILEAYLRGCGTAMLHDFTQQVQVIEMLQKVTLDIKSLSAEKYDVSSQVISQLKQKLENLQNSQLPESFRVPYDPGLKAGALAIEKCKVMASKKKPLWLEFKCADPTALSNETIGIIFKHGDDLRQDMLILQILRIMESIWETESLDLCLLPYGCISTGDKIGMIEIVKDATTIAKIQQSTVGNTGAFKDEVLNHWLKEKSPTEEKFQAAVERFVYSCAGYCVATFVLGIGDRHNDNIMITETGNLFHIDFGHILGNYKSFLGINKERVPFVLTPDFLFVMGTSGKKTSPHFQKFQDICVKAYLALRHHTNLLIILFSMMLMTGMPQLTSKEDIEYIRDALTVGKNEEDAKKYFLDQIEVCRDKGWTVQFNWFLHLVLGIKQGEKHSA
T1 sequence (Q8WYR1 whole entry partner, species assumed): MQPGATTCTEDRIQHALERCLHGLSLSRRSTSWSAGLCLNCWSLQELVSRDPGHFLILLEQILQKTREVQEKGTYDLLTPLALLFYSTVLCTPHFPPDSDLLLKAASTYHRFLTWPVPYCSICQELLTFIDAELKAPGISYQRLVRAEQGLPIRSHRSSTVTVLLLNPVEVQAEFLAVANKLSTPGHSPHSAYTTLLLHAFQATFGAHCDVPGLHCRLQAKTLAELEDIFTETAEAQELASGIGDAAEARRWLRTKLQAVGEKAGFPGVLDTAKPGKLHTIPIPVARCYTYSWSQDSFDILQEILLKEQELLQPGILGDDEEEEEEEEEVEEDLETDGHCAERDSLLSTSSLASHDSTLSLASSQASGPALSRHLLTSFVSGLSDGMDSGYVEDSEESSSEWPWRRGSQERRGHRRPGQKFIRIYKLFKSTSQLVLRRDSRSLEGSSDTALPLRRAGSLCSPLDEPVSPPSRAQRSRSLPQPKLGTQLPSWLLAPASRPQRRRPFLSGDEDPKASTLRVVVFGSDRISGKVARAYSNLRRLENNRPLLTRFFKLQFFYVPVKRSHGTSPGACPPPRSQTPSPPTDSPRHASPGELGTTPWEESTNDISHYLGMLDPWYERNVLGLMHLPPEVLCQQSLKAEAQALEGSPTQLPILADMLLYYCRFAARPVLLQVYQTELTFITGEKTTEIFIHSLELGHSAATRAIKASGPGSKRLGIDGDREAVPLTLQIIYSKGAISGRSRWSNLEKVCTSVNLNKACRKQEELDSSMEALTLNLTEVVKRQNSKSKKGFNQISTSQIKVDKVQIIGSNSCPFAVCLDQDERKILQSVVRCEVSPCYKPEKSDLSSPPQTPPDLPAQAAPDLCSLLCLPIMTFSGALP

Compound	pIC50
O=C1NC(=S)SC1=Cc1ccc2c(c1)N(C(=O)NCCc1ccccc1)CCO2 [Example 65, 6-(4-Oxo-2-thioxo-thiazolidin-5-ylidenemethyl)-2,3-dihydro-1,4-benzoxazine-4-carboxylic acid phenethyl-amide]	7.77
O=C1NC(=S)SC1=Cc1ccc2c(c1)N(C(=O)c1ccc(-c3ccccc3)cc1)CCO2 [Example 24, 5-[4-(Biphenyl-4-carbonyl)-3,4-dihydro-2H-1,4-benzoxazin-6-ylmethylene]-2-thioxo-thiazolidin-4-one]	6.25
N#Cc1ccc(C(=O)N2CCOc3ccc(C=C4SC(=S)NC4=O)cc32)cc1 [Example 28, 4-[6-(4-Oxo-2-thioxo-thiazolidin-5-ylidenemethyl)-2,3-dihydro-1,4-benzoxazine-4-carbonyl]-benzonitrile]	6.41
5-[9-(3-Phenyl-acryloyl)-6,7,8,9-tetrahydro-5-oxa-9-aza-benzocyclohepten-2-ylmethylene]-2-thioxo-thiazolidin-4-one [Example 115]	5.82
O=C1NC(=S)SC1=Cc1ccc2c(c1)N(C(=O)C1CC1)CCO2 [Example 32, 5-(4-Cyclopropanecarbonyl-3,4-dihydro-2H-1,4-benzoxazin-6-ylmethylene)-2-thioxo-thiazolidin-4-one]	5.40
5-[9-(5-tert-Butyl-2-methyl-furan-3-carbonyl)-6,7,8,9-tetrahydro-5-oxa-9-aza-benzocyclohepten-2-ylmethylene]-2-thioxo-thiazolidin-4-one [Example 125]	5.34
CC(C(=O)N1CCOc2ccc(C=C3SC(=S)NC3=O)cc21)c1ccccc1 (stereo not shown) [Example 84, 5-[4-(2-Phenyl-propionyl)-3,4-dihydro-2H-benzo[1,4]oxazin-6-ethylene]-2-thioxo-thiazolidin-4-one]	7.08
COc1cc(CN2CCCOc3ccc(C=C4SC(=S)NC4=O)cc32)cc(OC)c1 [Example 6, 5-[9-(3,5-Dimethoxy-benzyl)-6,7,8,9-tetrahydro-5-oxa-9-aza-benzocyclohepten-2-ylmethylene]-2-thioxo-thiazolidin-4-one]	6.82
O=C1NC(=S)SC1=Cc1ccc2c(c1)N(C(=O)c1ccc3ccccc3c1)CCO2 [Example 29, 5-[4-(Naphthalene-2-carbonyl)-3,4-dihydro-2H-1,4-benzoxazin-6-ylmethylene]-2-thioxo-thiazolidin-4-one]	6.24
COc1cc(NC(=O)N2CCOc3ccc(C=C4SC(=S)NC4=O)cc32)cc(OC)c1 [Example 67, 6-(4-Oxo-2-thioxo-thiazolidin-5-ylidenemethyl)-2,3-dihydro-1,4-benzoxazine-4-carboxylic acid (3,5-dimethoxy-phenyl)-amide]	7.41
O=C1NC(=S)SC1=Cc1ccc2c(c1)N(C(=O)c1cccnc1)CCCO2 [Example 117, 5-[9-(Pyridine-3-carbonyl)-6,7,8,9-tetrahydro-5-oxa-9-aza-benzocyclohepten-2-ylmethylene]-2-thioxo-thiazolidin-4-one]	5.72
CCCCCC(=O)N1CCOc2ccc(C=C3SC(=S)NC3=O)cc21 [Example 95, 5-(4-Hexanoyl-3,4-dihydro-2H-1,4-benzoxazin-6-ylmethylene)-2-thioxo-thiazolidin-4-one]	8.10
O=C1NC(=S)SC1=Cc1ccc2c(c1)N(C(=O)c1ccncc1)CCO2 [Example 12]	6.39
O=C1NC(=S)SC1=Cc1ccc2c(c1)N(C(=O)c1ccccn1)CCO2 [Example 54, 5-[4-(Pyridine-2-carbonyl)-3,4-dihydro-2H-1,4-benzoxazin-6-ylmethylene]-2-thioxo-thiazolidin-4-one]	6.35
CC(=O)N1CCOc2ccc(C=C3SC(=S)NC3=O)cc21 [Example 92, 5-(4-Acetyl-3,4-dihydro-2H-1,4-benzoxazin-6-ylmethylene)-2-thioxo-thiazolidin-4-one]	7.48
O=C1NC(=S)SC1=Cc1ccc2c(c1)N(C(=O)C1CCCCC1)CCO2 [Example 2, 5-[4-(1-Cyclohexyl-methanoyl)-3,4-dihydro-2H-benzo[1,4]oxazine-6-ylmethylene]-2-thioxo-thiazolidin-4-one]	7.66
O=C1NC(=S)SC1=Cc1ccc2c(c1)N(C(=O)c1cc(Cl)sc1Cl)CCO2 [Example 51, 5-[4-(2,5-Dichloro-thiophene-3-carbonyl)-3,4-dihydro-2H-1,4-benzoxazin-6-ylmethylene]-2-thioxo-thiazolidin-4-one]	6.07
Cc1cccc(C(=O)N2CCOc3ccc(C=C4SC(=S)NC4=O)cc32)c1 [Example 23, 5-[4-(3-Methyl-benzoyl)-3,4-dihydro-2H-1,4-benzoxazin-6-ylmethylene]-2-thioxo-thiazolidin-4-one]	7.00
Cc1cc(C)cc(NC(=O)N2CCOc3ccc(C=C4SC(=S)NC4=O)cc32)c1 [Example 79, 6-(4-Oxo-2-thioxo-thiazolidin-5-ylidenemethyl)-2,3-dihydro-benzo[14]oxazine-4-carboxylic acid (3,5-dimethyl-phenyl)-amide]	8.05
Cc1cc(C)cc(CN2c3cc(C=C4SC(=S)NC4=O)ccc3OCC2C)c1 (stereo not shown) [Example 9, 5-[4-(3,5-Dimethyl-benzyl)-3-methyl-3,4-dihydro-2H-benzo[1,4]oxazine-6-ylmethylene]-2-thioxo-thiazolidin-4-one]	5.59
O=C1NC(=S)SC1=Cc1ccc2c(c1)N(C(=O)c1cc(C(F)(F)F)cc(C(F)(F)F)c1)CCO2 [Example 45, 5-[4-(3,5-Bis-trifluoromethyl-benzoyl)-3,4-dihydro-2H-1,4-benzoxazin-6-ylmethylene]-2-thioxo-thiazolidin-4-one]	6.12
CCCCC(CC)C(=O)N1CCOc2ccc(C=C3SC(=S)NC3=O)cc21 (stereo not shown) [Example 99, 5-[4-(2-Ethyl-hexanoyl)-3,4-dihydro-2H-1,4-benzoxazin-6-ylmethylene]-2-thioxo-thiazolidin-4-one]	6.56
2-[2-(4-Oxo-2-thioxo-thiazolidin-5-ylidenemethyl)-7,8-dihydro-6H-5-oxa-9-aza-benzocycloheptene-9-carbonyl]-anthraquinone [Example 127]	5.30
O=C1NC(=S)SC1=Cc1ccc2c(c1)N(C(=O)c1sccc1Cl)CCO2 [Example 53, 5-[4-(3-Chloro-thiophene-2-carbonyl)-3,4-dihydro-2H-1,4-benzoxazin-6-ylmethylene]-2-thioxo-thiazolidin-4-one]	6.58
O=C1NC(=S)SC1=Cc1ccc2c(c1)N(C(=O)C1CCCC1)CCO2 [Example 33, 5-(4-Cyclopentanecarbonyl-3,4-dihydro-2H-1,4-benzoxazin-6-ylmethylene)-2-thioxo-thiazolidin-4-one]	7.85
4-(3,5-dimethyl-benzyl)-3,4-dihydro-2H-benzo[1,4]oxazine-6-ylmethylene]-2-thioxo-thiazolidin-4-one [Example 4]	6.19
Cc1ccc(OC(=O)N2CCOc3ccc(C=C4SC(=S)NC4=O)cc32)cc1 [Example 18, 6-(4-Oxo-2-thioxo-thiazolidin-5-ylidenemethyl)-2,3-dihydro-1,4-benzoxazine-4-carboxylic acid p-tolyl ester]	8.40
O=C1NC(=S)SC1=Cc1ccc2c(c1)N(C(=O)Nc1cccc(Cl)c1)CCO2 [Example 80, 6-(4-Oxo-2-thioxo-thiazolidin-5-ylidenemethyl)-2,3-dihydro-benzo[1,4]oxazine-4-carboxylic acid (3-chloro-phenyl)-amide]	8.70
